Data reported in US20230352136A1, “SYSTEMS AND METHODS TO EVALUATE DRUG-INDUCED GASTROINTESTINAL DYSRHYTHMIA” (The Chinese University of Hong Kong, priority 2022, published 2023).

Columns and labels:
[1] = tested on: stomach pacemaker potentials; assay: MEA recording of pacemaker potentials (slow waves), isolated stomach; assay type: cell-based, Suncus murinus
Method: (§1) Pacemaker potentials were recorded extracellularly on a 60-channel MEA system using full-thickness GI segments isolated from Suncus murinus. Basic slow-wave parameters, including frequency, amplitude, slope, period, and power partitions, were derived. Signal regularity was also evaluated using detrended fluctuation analysis and sample entropy analysis.
(§2) Electrical recordings were taken after the animals were euthanised by carbon dioxide asphyxiation. […] The mesentery was removed, and the lumen contents were flushed with Krebs' medium. Segments (−1 cm) of duodenum, ileum, and colon were then isolated, but the stomach was kept intact. All tissue segments and the entire stomach were incubated in Krebs' medium containing nifedipine (1 μM; Sigma Aldrich, St Louis, MO, USA) for 15 min to inhibit smooth muscle activity. Pacemaker potentials were recorded using an MEA platform (MEA1060 1200×; Multichannel Systems, Reutlingen, Germany) as previously described. Briefly, tissues were placed onto the electrode field of an MEA chip (60-channel, 8×8 configuration, 3D-tip-shaped electrodes with a height of […] and an inter-electrode distance of 200 μm; Ayanda Biosystems SA, Lausanne, Switzerland). Intestinal segments were aligned horizontally to the recording electrode field, while the stomach was oriented with the antrum facing the recording electrode field. The chamber temperature was maintained at 37° C. and the sampling frequency was 1 kHz. […] All data were recorded and saved using MC_Rack (v 4.6.2, Multichannel Systems).
(§3) Data analysis included basic slow-wave feature extraction using a custom automated program. […] The time point of drug administration was automatically identified based on the signal disturbance. The period of signal disturbance (20 s before and 40 s after the peak of the disturbance) was excluded from the analysis. Data were filtered using a passband between 0.1 Hz and 1 Hz and a stopband between 0.01 Hz and 2 Hz. The basic slow-wave features extracted were similar to those extracted in the inventors' previous studies. However, instead of using several templates and scripts written in Microsoft Excel and Spike 2, a one-step automatic and blinded MATLAB programme was used for data analysis. There were four major changes to the data analysis process as compared to the inventors' previous studies. First, auto-identification of the drug disturbance time point was used, rather than manual identification. Second, standardised signal filters were built in MATLAB to match the entire data analysis pipeline. […] Frequency partitioning was performed by segmenting the power spectrum of 0-50 cpm into the following four segments: brady-rhythm (within the range 2-[DF−1] cpm), normal-rhythm ([DF±1] cpm), tachy-rhythm (within the range [DF+1]-40 cpm), and out-of-range frequencies (<2 cpm and >40 cpm). Third, waveforms were identified using the MATLAB ‘findpeaks’ function, with a minimum peak height of […] at baseline and […] after drug treatment, with a step time of 5.4 s for the intestine and 12 s for the stomach. The average peak-to-peak amplitude, slope, and period were derived for all detected waveforms. Fourth, propagation velocity was derived using phase-difference measurements, based on the auto-select seed electrode with the highest percentage of normal rhythms.
(§4) Dominant activation pattern identification included a phase-based analysis performed as previously described (Liu et al., 2021). Briefly, high-frequency spikes with amplitudes greater than […] were masked. Continuous frequencies were identified using continuous wavelet transformation, and the transformed data were used to plot spectrograms. […] High quality data were subjected to Hilbert transformation to identify the phase and frequency of the signals. Individual activation times were clustered using k-means clustering every 20 s and major activation patterns were grouped using a structural similarity index.

[2] = tested on: ileum pacemaker potentials; assay: MEA recording of pacemaker potentials (slow waves), isolated ileum; assay type: cell-based, Suncus murinus; conditions: ileal tissues
Method: as §1, §2, §3, §4

Cl.NCCc1ccc(O)c(O)c1 [dopamine, 3-Hydroxytyramine hydrochloride]
representative spectrogram, effect ([1]; 100 μM): reduced the DP of the DF
wave fronts counted in representative spatio-temporal map (1 min) ([1]; 100 μM, 9 before treatment): ~10
DFA fluctuation function (smaller scale 3-25) ([1]; 100 μM, baseline 2.36±0.08, p<0.05, n=7): 2.27±0.16
number of groups of activation patterns ([1]; 100 μM, baseline 4.3±1.0, p<0.05, n=8): 5.3±1.0
average frequency (AF) ([1]; 100 μM, baseline 9.8±1.2, p<0.05, n=8): 11.8±1.8 cpm
percentage of tachy-rhythms ([1]; 100 μM, baseline 36.1±12.8, p<0.05, n=8): 60.2±15.4%
percentage of normal rhythms ([1]; 100 μM, baseline 55.1±7.2, p<0.01, n=8): 23.6±13.1%
dominant power (DP) of slow waves ([1]; 100 μM, baseline 888.0±691.5, p<0.05, n=8): 253.2±416.1 μV^2
percentage of dominant patterns (based on post-treatment data, FIG. 3E), change vs baseline ([1]; 100 μM, p>0.05, n=4): No significant differences
percentage of dominant baseline activation patterns, change vs baseline ([1]; 100 μM, p>0.05, n=4, FIG. 3D): No significant differences
average SampEn (larger scale 6-50), effect ([1]; 100 uM, p>0.05, n=7): did not change
average SampEn (smaller scale 1-5), effect ([1]; 100 uM, p>0.05, n=7): did not change
DFA fluctuation function (larger scale 26-46), effect ([1]; 100 μM, p>0.05, n=7): did not change
amplitude of slow waves, change vs baseline ([1]; 100 μM, p>0.05, n=8): No significant differences
dominant frequency (DF), change vs baseline ([1]; 100 μM, p>0.05, n=8): No significant differences
propagation velocities, effect ([1]; 100 μM, p>0.05, n=8): did not affect
slope of waveforms, change vs baseline ([1]; 100 μM, p>0.05, n=8): No significant differences
waveform period, change vs baseline ([1]; 100 μM, p>0.05, n=8): No significant differences
wave propagation in video (FIG. 11B), effect ([1]; 100 M): wave propagation was inhibited, and amplitudes were reduced
DFA fluctuation function (larger scale 26-46) ([2]; 100 nM, baseline 1.71±0.17, p<0.05, n=6): 1.55±0.13
DFA fluctuation function (smaller scale 3-25) ([2]; 100 nM, baseline 2.35±0.14, p<0.05, n=6): 2.28±0.11
waveform period ([2]; 100 nM, baseline 2.66±0.40, p<0.05, n=7): 3.73±1.05
percentage of dominant patterns (based on post-treatment data, FIG. 3E), second pattern ([2]; 100 nM, baseline 15.6±10.3, p<0.05, n=7): 4.2±4.2%
percentage of dominant patterns (based on post-treatment data, FIG. 3E), third pattern ([2]; 100 nM, baseline 16.8±6.6, p<0.01, n=7): 3.0±2.6%
percentage of dominant baseline activation patterns, third pattern ([2]; 100 nM, baseline 17.2±4.8, p<0.0001, n=7): 2.2±2.6%
percentage of dominant baseline activation patterns, second pattern ([2]; 100 nM, baseline 21.5±1.7, p<0.0001, n=7): 2.6±1.6%
average frequency (AF) ([2]; 100 nM, baseline 23.5±3.0, p<0.05, n=7): 19.4±3.6 cpm
percentage of brady-rhythms ([2]; 100 nM, baseline 31.8±11.7, p<0.05, n=7): 60.0±26.0%
percentage of dominant baseline activation patterns, first pattern ([2]; 100 nM, baseline 32.8±5.7, p<0.01, n=7): 3.8±4.5%
percentage of normal rhythms ([2]; 100 nM, baseline 46.1±5.6, p<0.01, n=7): 4.8±17.0%
amplitude of slow waves ([2]; 100 nM, baseline 165.2±20.5, p<0.001, n=7): 119.2±20.0 μV
slope of waveforms ([2]; 100 nM, baseline 257.5±59.8, p<0.01, n=7): 160.1±42.0 μV s^−1
dominant power (DP) of slow waves ([2]; 100 nM, baseline 780.4±276.9, p<0.001, n=7): 177.5±83.0 μV^2
DFA fluctuation function (larger scale 26-46) ([2]; 1 μM, baseline 1.78±0.24, p<0.05, n=8): 1.64±0.28
number of groups of activation patterns ([2]; 1 μM, baseline 6.3±0.8, p<0.05, n=7): 7±0.8
percentage of dominant patterns (based on post-treatment data, FIG. 3E), first pattern ([2]; 1 μM, baseline 8.9±9.0, p<0.01, n=6): 31.4±13.7%
percentage of brady-rhythms ([2]; 1 μM, baseline 27.5±7.8, p<0.05, n=7): 46.3±22.7%
percentage of dominant baseline activation patterns, first pattern ([2]; 1 μM, baseline 35.2±6.0, p<0.001, n=6): 13.0±6.7%
percentage of normal rhythms ([2]; 1 μM, baseline 50.6±10.8, p<0.01, n=7): 24.5±11.8%
amplitude of slow waves ([2]; 1 μM, baseline 187.1±76.9, p<0.01, n=7): 138.0±66.2 μV
slope of waveforms ([2]; 1 μM, baseline 300.9±117.5, p<0.01, n=7): 204.4±91.9 μV s^−1
dominant power (DP) of slow waves ([2]; 1 μM, baseline 1,070.5±745.1, p<0.05, n=7): 460.3±297.0 μV^2
representative spectrogram (left), effect on DF ([2]; 10 μM): slightly shifted towards a higher frequency
representative spectrogram (right), effect ([2]; 10 μM): extra peaks appearing to the left of the baseline DF
wave fronts counted in representative spatio-temporal map (1 min) ([2]; 10 μM, 26 before treatment): 30
waveform period ([2]; 10 μM, baseline 2.30±0.18, p<0.05, n=6): 3.05 ± 0.68 s
number of groups of activation patterns ([2]; 10 μM, baseline 9.3±0.7, p<0.05, n=6): 6.9±1.0
percentage of dominant patterns (based on post-treatment data, FIG. 3E), first pattern ([2]; 10 μM, baseline 17.2±11.5, p<0.05, n=5): 32.3±13.2%
percentage of brady-rhythms ([2]; 10 μM, baseline 32.8±12.9, p<0.05, n=6): 63.3±28.5%
percentage of dominant baseline activation patterns, first pattern ([2]; 10 μM, baseline 35.7±8.4, p<0.05, n=5): 19.2±16.4%
percentage of normal rhythms ([2]; 10 μM, baseline 50.9±9.8, p<0.0001, n=6): 9.2±10.9%
amplitude of slow waves ([2]; 10 μM, baseline 229.6±115.9, p<0.05, n=6): 149.1±56.7 μV
slope of waveforms ([2]; 10 μM, baseline 383.7±185.8, p<0.05, n=6): 238.2±95.7 μV s^−1
DFA fluctuation function (larger scale 26-46) ([2]; 100 μM, baseline 1.63±0.23, p<0.05, n=7): 1.43±0.21
DFA fluctuation function (smaller scale 3-25) ([2]; 100 μM, baseline 2.35±0.12, p<0.05, n=7): 2.25±0.05
percentage of dominant patterns (based on post-treatment data, FIG. 3E), third pattern ([2]; 100 μM, baseline 17.8±7.4, p<0.05, n=4): 6.8±6.1%
percentage of dominant baseline activation patterns, third pattern ([2]; 100 μM, baseline 19.1±2.8, p<0.01, n=4): 5.9±6.6%
percentage of dominant baseline activation patterns, second pattern ([2]; 100 μM, baseline 23.5±2.8, p<0.001, n=4): 5.7±5.1%
percentage of dominant baseline activation patterns, first pattern ([2]; 100 μM, baseline 27.6±4.1, p<0.01, n=4): 9.4±9.5%
dominant frequency (DF), change vs baseline ([2]; 0.1-100 μM, p>0.05, n=6-7): No significant differences
propagation velocities, effect ([2]; 0.1-100 μM, p>0.05, n=6-7): did not affect
average SampEn (larger scale 6-50), effect ([2]; 0.1-100 μM, p>0.05, n=6-8): did not change
average SampEn (smaller scale 1-5), effect ([2]; 0.1-100 μM, p>0.05, n=6-8): did not change
DFA fluctuation function (smaller scale 3-25) ([2]; 1 M, baseline 2.29±0.23, p<0.05, n=8): 2.19±0.20
waveform period ([2]; 1 M, baseline 2.53±0.50, p<0.05, n=7): 3.10 ± 0.74 s
DFA fluctuation function (smaller scale 3-25) ([2]; 10 M, baseline 2.24±0.32, p<0.05, n=8): 2.13±0.34
